Source: patent US20230149558A1, “DUOCARMYCIN DERIVATIVE AND USE THEREOF” (The University of Tokyo, priority 2020, published 2023)

Test system: HeLa S3 cells
Assay: Cytotoxicity of Duocarmycin SA and Duocarmycin SA-Valine (Cell Counting Kit-8)
Format: cell-based
Conditions: 1.0E-11 to 6.0E-07, 48 hours, FIG. 11
Description: In order to confirm the activities of Compound X (Duocarmycin SA) and Compound Y (Duocarmycin SA-Valin) shown in FIG. 9 and FIG. 10, cytotoxicity was confirmed using HeLa S3 cells.
The cells were seeded on a 96-well plate for cell culture, so that the cell count became 5×10^3 cells/well and the amount of the culture solution became 50 μL/well, and thereafter, the cells were cultured overnight. The concentration of Compound X or Compound Y was adjusted with a culture solution, so that the final concentration thereof became 600 nM. […]
The medium used in the overnight culture of the cells was exchanged with the prepared agent-diluted solution, and the cells were then cultured for 48 hours. […] The dosage and administration applied in the assay were determined in accordance with the instruction manuals included with the kit, and after addition of the reagent, the mixture was incubated for 1.5 hours at 37° C., in a CO2 incubator. Thereafter, the absorbance at 450 nm was measured, and a mean value was then calculated, followed by background collection. The control was set to be 100%, and the ratio of the cell growth under each condition to the control was calculated. […]

Substance: Duocarmycin SA-Valine
- effect of suppressing cell growth (ratio of cell growth to control): higher effect of suppressing cell growth than Duocarmycin SA
